Source: the NIST ThermoML archive (doi:10.1021/je200813q)

Test: mn = molality of the nth substance listed, in mol/kg
Details: 101.3 kPa, Liquid, Buoyancy - hydrostatic balance with magnetic suspension - one sinker

O=S(=O)([O-])[O-].[O]=[V+2] [oxovanadium(IV) sulfate] + O
mass density [kg/m3]
Details	283.15 K	293.15 K	298.15 K	303.15 K	313.15 K	323.15 K
m1 = 0.5	1074.6	1072.5	1070.7	1068	1065	1060.4
m1 = 0.8	1117.6	1114.8	1113	1110.7	1106.6	1101.7
m1 = 1	1144.9	1141.9	1139.8	1137.6	1133.3	1128.4
m1 = 1.2	1171.8	1169.5	1167.2	1164.6	1159.9	1154.7
m1 = 1.5	1211.3	1207.8	1205.3	1202.7	1198.3	1192.4
m1 = 1.8	1249.6	1245.6	1242.9	1240.4	1235.3	1229.9
m1 = 2	1274.1	1270	1267.4	1264.7	1259.6	1253.9
m1 = 2.2	1298.2	1293.9	1291.2	1288.8	1283.4	1277.6
m1 = 2.5	1333.7	1329.3	1326.5	1323.9	1318.5	1312.7
m1 = 2.8	1367.1	1362.8	1359.8	1357.2	1351.6	1345.6
m1 = 3	1389.5	1384.6	1381.3	1378.8	1373.4	1367.5
